Results published in patent publication US11426385B2, “Methods of improving cancer chemotherapy” (THE REGENTS OF THE UNIVERSITY OF CALIFORNIA, priority 2017, dated 2022).

What was measured:
[1] = toxicity in PDX-bearing mice (body weight, blood counts, chemistry, histology of major organs); design: species or system NSG mice; conditions: mouse, in vivo
Experimental: (§1) PDX bladder cancer. NSG PDX studies were performed at the University of California Davis with IACUC approval. […] Gemcitabine was dissolved in 0.9% saline and administered at a dose of 150 mg/kg (IP, weekly) for 4 weeks. Animal weight and tumor size were measured twice per week. […] The percentage of tumor growth inhibition (TGI) was calculated as follows; 100%×(1−[(V^treated(final day)−V^treated(initial day))/(V^control(final day)−V^control(initial day))]), where V is tumor volume.
(§2) Blood samples from mice were collected and analyzed for complete blood count (CBC), blood urea nitrogen (BUN), aspartate aminotransferase (AST), creatinine and total bilirubin at the Veterinary Medicine Comparative Pathology Laboratory of University of California Davis. The tumor, heart, liver, spleen, lung and kidney were harvested and the tissue samples were fixed in formalin or frozen at −80° C. […] The membranes were then probed with horseradish peroxidase (HRP) tagged secondary antibodies and epitopes were detected using the ECL Plus Western Blotting Detection Reagent (GE Healthcare, Piscataway, N.J.). Cell proliferation and apoptosis assessed with Ki-67 and cleaved caspase-3 antibodies (Cell Signaling, Danvers, Mass.) using an immunohistochemistry kit per the manufacturer's instructions (BioGenex, Fremont, Calif.).

[2] = system: bladder cancer PDX BL0293; assay: tumor growth and survival in NSG-PDX bladder cancer mouse model BL0293; assay type: in vivo, NSG mice
Experimental: (§3) Materials and Supplies. Bladder cancer subject-derived xenograft (PDX) models were provided by The Jackson Laboratory (JAX, Bar Harbor, Me.). […] All experiments utilized PDX models within the first five passages. […] Gemcitabine was purchased from LC Laboratories (Woburn, Mass.). […] The cell lines have not been tested and authenticated by the authors.
as §1
(§4) Statistics. Data are presented as mean±standard error of the mean (SEM) or mean±standard deviation (SD). Group comparisons were carried out using one-way analysis of variance or Student's t test. Survival analysis was performed using the Kaplan-Meier method. A p value of less than 0.05 was considered statistically significant.

[3] = system: 5637 bladder cancer cells; assay: 72 hr cell viability assay (MTS) and combination index, 5637; assay type: cell-based, human
Experimental: (§5) Median effect analysis to determine in vitro drug-drug interaction. […] PTUPB was dissolved in dimethyl sulfoxide (DMSO) to a final stock concentration of 10 mM. […] Cells were seeded at 2,000-3,000 cells and 100 μl of medium per well into 96-well plates (Becton Dickinson, Franklin Lakes, N.J.), and incubated overnight. Different concentrations of these two drugs were diluted in culture media and added to each well. The plates were then incubated for an additional 72 hours. The control group was dosed with 0.2% DMSO. Cell viability assays (MTS) were performed according to the manufacturer's protocol (Promega, Madison, Wis.). […] Dose-response curves were generated with GraphPad Prism 5 software (GraphPad Software Inc., La Jolla, Calif.). The combination indices (CI) were determined based on the method of Chou et al (26). CI values were calculated with CompuSyn software (http://www.combosyn.com/).

COX-2 and sEH pathways = assay: oxylipin profile analysis (LC-MS/MS) of tumor tissue; assay type: in vivo, NSG mice
Experimental: Oxylipin profile analysis. Lipid extraction and analysis was performed as previously reported (20). Briefly, for tumor lipid mediator extraction, ˜100 mg of tumor tissues was mixed with an antioxidant solution (0.2 mg/mL butylated hydroxytoluene and 0.2 mg/mL triphenylphosphine in methanol), the surrogate solution, and 400 μL of extract solution (0.1% acetic acid with 0.2 mg/mL butylated hydroxytoluene in methanol), and then homogenized. The resulting homogenates were kept overnight at −80° C. Next day, the homogenates were centrifuged and supernatants were collected. The pellets were washed with 0.1% butylated hydroxytoluene and 0.1% acetic acid in methanol and the supernatants were collected and combined. LC-MS/MS analysis of the extracts were carried out on an Agilent 1200SL liquid chromatographic system coupled to a 4000 QTRAP MS/MS instrument (AB Sciex) as described (29).

[4] = system: TCCSUP bladder cancer cell line; assay: 72 hr cell viability assay (MTS), TCCSUP; assay type: cell-based, human; conditions: PTUPB 1, 2, 5, 10 μM
Experimental: as §5

[5] = system: bladder cancer PDX BL0269; assay: tumor growth in NSG-PDX bladder cancer mouse model BL0269; assay type: in vivo, NSG mice
Experimental: as §3, §1, §4

[6] = system: bladder cancer PDX BL0808; assay: gemcitabine combination in bladder cancer PDX BL0808; assay type: in vivo
Experimental: PDX BL0808 was implanted into immunodeficient nod scid gamma (NSG) mice and treatment was started once tumor volume reached approximately 250 mm^3. Treatment consisted of either vehicle (5 μL/g PEG300, p.o., once daily until end of study), PTUPB (30 mg/kg in PEG300, p.o., once daily until end of study), gemcitabine (150 mg/kg in WFI, IP, once weekly, 4 times) or a combination of PTUPB with gemcitabine. Tumor volume and animal weight was monitored every other day and mice were sacrificed once tumor size reached 2 cm and tumor specific survival was recorded.

COX-1 = COX-1 inhibitory activity (Table 3); assay type: biochemical; design: dose or concentration left out as unconfirmed
[7] = system: T24 bladder cancer cell line; assay: 72 hr cell viability assay (MTS), T24; assay type: cell-based, human; conditions: PTUPB 1, 2, 5, 10 μM
Experimental: as §5

[8] = system: J82 bladder cancer cell line; assay: 72 hr cell viability assay (MTS), J82; assay type: cell-based, human; conditions: PTUPB 1, 2, 5, 10 μM
Experimental: as §5

p-ERK and p-AKT = assay: Western blot of PDX BL0293 tumor tissue; assay type: in vivo, NSG mice; conditions: day 3; BL0293 tumors
Experimental: as §2, with “C. Tumor sections were stained with hematoxylin and eosin (H&E) or were used for immunohistochemistry analysis. A board-certified pathologist provided detailed interpretation of tumor histomorphology and scoring of immunohistochemical staining. Some of the tumor sections were lysed and chromatographed using SDS-PAGE followed by transfer onto a PVDF membrane.” for “C.”

[9] = BL0293, PTUPB 30 mg/kg orally once daily, cisplatin 2 mg/kg i.v.

With `NS(=O)(=O)c1ccc(-n2nc(CCCNC(=O)Nc3ccc(C(F)(F)F)cc3)cc2-c2ccccc2)cc1` [PTUPB, 4-(5-phenyl-3-{3-[3-(4-trifluoromethyl-phenyl)-ureido]-propyl}-pyrazol-1-yl)-benzenesulfonamide] the body weight change [1] was “slightly decreased body weight”, the “histology examination of major organs” value [1] was “no such morphology changes were observed” and the “median time to a […] increase in tumor volume” value [2, 9] was 24.4 days. For the same molecule, the overall survival [2, 9] was 39.4 days, the “anti-tumor activity, single agent” value ([2]; mice bearing BL0293 tumors) was “moderate anti-tumor activity” and the IC50 ([3]; Homo sapiens, single drug, 72 hr) was 90.4 µM. For the same molecule, the “drug-drug interaction with cisplatin (combination index)” value ([3]; PTUPB 1, 2, 5 and 10 μM with cisplatin at 5 μM) was “modest synergistic effects”, the “effect on diol metabolites 10,11-DiHDPE and 15,16-DiHODE” value (COX-2 and sEH pathways; BL0269 tumors) was “no effect” and the “increase of 10,11-EpDPE, 15,16-EpODE” value (COX-2 and sEH pathways; BL0269 tumors) was “approximately two-fold increase”. The “reduction of levels of prostaglandins PGE2, PGD2, TXB2, 6-keto-PGF1α in tumor” value (COX-2 and sEH pathways; mouse, in vivo) was about 50%, the “decrease of diol metabolite 12,13-DiHOME” value (COX-2 and sEH pathways; tumor) was about 2 fold and the “increase of 12,13-EpOME” value (COX-2 and sEH pathways; tumor) was “approximately two-fold increase”. The “effect on cisplatin cytotoxicity” value [4] was “did not increase cisplatin cytotoxicity”, the “inhibition of tumor growth on addition to GC (gemcitabine and cisplatin)” value ([5]; PTUPB 30 mg/kg, cisplatin 2 mg/kg, gemcitabine 150 mg/kg) was “best inhibition of tumor growth” and the “potentiation of cisplatin with respect to inhibiting tumor growth” value ([5]; combined with cisplatin 2 mg/kg) was “best and most statistically significant potentiation”. For the same molecule, the “gemcitabine chemotherapy efficacy (tumor volume)” value ([6]; PTUPB 30 mg/kg p.o. with gemcitabine 150 mg/kg IP) was “extends gemcitabine chemotherapy efficacy”, the “gemcitabine toxicity (animal weight)” value ([6]; PTUPB with gemcitabine) was “does not increase gemcitabine toxicity” and the tumor specific survival ([6]; PTUPB with gemcitabine) was “increases tumor specific survival”. The “COX-1 (% inhibition)” value (COX-1) was 22.7%, the “effect on cisplatin cytotoxicity” value [7] was “did not increase cisplatin cytotoxicity” and the “effect on cisplatin cytotoxicity” value [8] was “did not increase cisplatin cytotoxicity”. The “levels of p-ERK and p-AKT” value (p-ERK and p-AKT) was “did not significantly diminish”.
